According to US10533992B2, “Method for screening for sunlight protection functional material and method for evaluating sunlight protection effect” (AMOREPACIFIC CORPORATION, priority 2015, dated 2020):

Legend:
[1] = system: HBD-1, HBD-2, HBD-3, LL-37, psoriasin, dermcidin, and RNase 7; test: AMP expression (Q-RT-PCR) in keratinocytes treated with Poly I:C and the scavengers PTIO or NAC, with or without blue/violet light; format: cell-based, human
Procedure: (§1) First, according to a commercially secured and recommended method, the human epidermal neonatal keratinocytes used in the present invention were purchased from Lonza, Inc. (Walkersville, Md., US), subcultured, and then cultured in a CO2 incubator under the conditions of 37° C. and 5% CO2. The culture medium was prepared according to the guideline provided by Lonza, Inc. KGM-2 Bullet kit: BPE (Bovine pituitary extract) 2 ml, hEGF (human epidermal growth factor) 0.5 ml, insulin 0.5 ml, hydrocortisone 0.5 ml, transferrin 0.5 ml, epinephrine 0.5 ml, and gentamycin sulfate+amphotericin-B(GA-1000) 0.5 ml were added to 500 ml of KBM-2 (Clonetics CC-3103) medium.
(§2) Subsequently, blue/violet light of a wavelength from 400 to 500 nm was radiated to the medium in which human epidermal neonatal keratinocytes is cultured (10 J/cm^2). […]
(§3) Then, the separated RNA was once again purified by using an RNA kit (QIAGEN RNeasy kt, QIAGEN, Valencia, Calif.), and then the quality of the RNA was examined by using Agilent 2100 BioAnalyzer (Agilent Technologies, Santa Clara, Calif., USA). The Superscript Reverse Transcriptase (RT) kit (Invitrogen, Carlsbad, Calif.) was used to synthesize cDNA from the RNA, and the cDNA was quantitatively analyzed through a real time-reverse transcription polymerase chain reaction (Q-RT-PCR). […]

[2] = system: HBD-1, HBD-2, HBD-3, LL-37, psoriasin, dermcidin, and RNase7; test: AMP expression (Q-RT-PCR) in keratinocytes treated with Poly I:C and flagellin, with or without blue/violet light; format: cell-based; settings: human epidermal neonatal keratinocytes; Poly I:C and flagellin treatment; FIGS. 3a to 3g
Procedure: as §1, §2, §3

Molecule	expression level of the AMPs on blue/violet light radiation ([1]; Poly I:C treated keratinocytes, blue/violet light 10 J/cm^2, scavenger treated group)	expression level of HBD-1, HBD-2, HBD-3, LL-37, psoriasin, dermcidin, and RNase7 ([1]; human epidermal neonatal keratinocytes, Poly I:C treatment, FIGS. 4a to 4g)	expression level of HBD-1, HBD-2, HBD-3, LL-37, psoriasin, dermcidin, and RNase7 [2]
CC1(C)N([O])C(c2ccc(C(=O)[O-])cc2)=[N+]([O-])C1(C)C.[K+] [PTIO, 2-(4-Carboxyphenyl)-4,4,5,5-tetramethylimidazoline-1-oxyl-3-oxide potassium salt]	not reduced		
Poly I:C		increased	increased
flagellin			increased
